According to patent US9328099B2, “Cyanomethylpyrazole carboxamides as janus kinase inhibitors” (Merck Sharp & Dohme Corp., priority 2011, dated 2016):
pIC50: −log10 of the molar value.

What follows are molecules tested against JAK1 (Homo sapiens (Human), UniProt P23458) (assay: Jak Biochemical HTRF Assay, JAK1). Conditions: HTRF biochemical assay, GST-tagged catalytic domain; top concentration tested […]; read-out: JAK1 IC50.
Excerpt: (§1) Jak Biochemical HTRF Assay Protocol
(§2) Subsequent reagent additions employed an Agilent Bravo.

Chain of JAK1 (P23458 875-1153): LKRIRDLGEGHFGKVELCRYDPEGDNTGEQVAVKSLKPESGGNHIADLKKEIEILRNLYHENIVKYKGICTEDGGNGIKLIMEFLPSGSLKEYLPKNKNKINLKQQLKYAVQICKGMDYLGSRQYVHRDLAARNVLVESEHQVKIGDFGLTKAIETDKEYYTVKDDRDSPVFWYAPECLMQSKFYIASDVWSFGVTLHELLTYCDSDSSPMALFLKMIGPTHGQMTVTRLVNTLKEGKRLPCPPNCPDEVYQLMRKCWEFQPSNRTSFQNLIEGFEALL

Row | pIC50 | SMILES
1 | 8.70 | C[C@H]1C[C@](CC#N)(n2cc(C(N)=O)c(Nc3ccccc3)n2)CCN1C(=O)OC(C)(C)C (racemic) [Example 2-10]
2 | 7.54 | C[C@@H]1C[C@](CC#N)(n2cc(C(N)=O)c(Nc3ccccc3)n2)CCN1C(=O)OC(C)(C)C (racemic) [Example 2-11, tert-butyl (2R,4R and 2S,4S)-4-[4-carbamoyl-3-(phenylamino)-1H-pyrazol-1-yl]-4-(cyanomethyl)-2-methylpiperidine-1-carboxylate]
3 | 9.00 | CC(C)(C)OC(=O)N1CC[C@](CC#N)(n2cc(C(N)=O)c(Nc3ccc(F)cc3)n2)[C@@H](F)C1 (racemic) [Example 6-3, tert-butyl (3S,4R and 3R,4S)-4-{4-carbamoyl-3-[(4-fluorophenyl)amino]-1H-pyrazol-1-yl}-4-(cyanomethyl)-3-fluoropiperidine-1-carboxylate]

The remaining lines, values behind:

Row | SMILES | pIC50
4 | N#CCC1(n2cc(C(N)=O)c(Nc3ccc(S(=O)(=O)C(F)F)cc3)n2)CCC(N2CC(F)C2)CC1 (stereo not drawn) [Example 40-105, Cis or trans 1-[1-(cyanomethyl)-4-(3-fluoroazetidin-1-yl)cyclohexyl]-3-({4-[(difluoromethyl)sulfonyl]phenyl}amino)-1H-pyrazole-4-carboxamide] | 10.10
5 | N#CCC1(n2cc(C(N)=O)c(Nc3ccnc(F)c3)n2)CCC(NCc2cccc(O)c2)CC1 (stereo not drawn) [Example 41-5, Cis or trans 1-{1-(cyanomethyl)-4-[(3-hydroxybenzyl)amino]cyclohexyl}-3-[(2-fluoropyridin-4-yl)amino]-1H-pyrazole-4-carboxamide] | 8.00
6 | N#CC[C@]1(n2cc(C(N)=O)c(Nc3ccnc(F)c3)n2)CC[C@@H](NS(=O)(=O)c2cccc(F)c2)CC1 [Example 42, cis-1-(1-(Cyanomethyl)-4-(3-fluorophenylsulfonamido)cyclohexyl)-3-((2-fluoropyridin-4-yl)amino)-1H-pyrazole-4-carboxamide] | 8.10

What follows are molecules tested against JAK2 (Homo sapiens (Human), UniProt O60674) (assay: Jak Biochemical HTRF Assay, JAK2). Conditions: not given.
Excerpt: as §1, §2

Chain of JAK2 (O60674 849-1124): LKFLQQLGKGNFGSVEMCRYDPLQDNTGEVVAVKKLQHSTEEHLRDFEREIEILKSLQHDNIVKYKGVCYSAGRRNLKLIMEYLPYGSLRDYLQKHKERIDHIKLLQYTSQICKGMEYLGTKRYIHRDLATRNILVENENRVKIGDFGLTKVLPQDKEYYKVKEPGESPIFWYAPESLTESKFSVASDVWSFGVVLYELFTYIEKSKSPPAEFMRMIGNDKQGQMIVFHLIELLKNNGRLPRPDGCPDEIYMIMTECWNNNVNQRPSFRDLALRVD

Row | SMILES | pIC50
7 | COC(=O)C(C)(C)OC(=O)N1CCC(CC#N)(n2cc(C(N)=O)c(Nc3ccc(F)cc3)n2)CC1 [Example 29-A, 1-Methoxy-2-methyl-1-oxopropan-2-yl4-{4-carbamoyl-3-[(4-fluorophenyl)amino]-1H-pyrazol-1-yl}-4-(cyanomethyl)piperidine-1-carboxylate] | 7.40
8 | N#CCC1(n2cc(C(N)=O)c(Nc3ccc(S(=O)(=O)C(F)F)cc3)n2)CCC(Nc2ccc(O)cc2)CC1 (stereo not drawn) [Example 40-7, Cis or trans 1-{1-(cyanomethyl)-4-[(4-hydroxyphenyl)amino]cyclohexyl}-3-({4-[(difluoromethyl)sulfonyl]phenyl}amino)-1H-pyrazole-4-carboxamide] | 7.44
9 | N#CCC1(n2cc(C(N)=O)c(Nc3ccc(S(=O)(=O)C(F)F)cc3)n2)CCC(Nc2cccnc2)CC1 (stereo not drawn) [Example 40-9, Cis or trans 1-[1-(cyanomethyl)-4-(pyridin-3-ylamino)cyclohexyl]-3-({4-[(difluoromethyl)sulfonyl]phenyl}amino)-1H-pyrazole-4-carboxamide] | 6.45
10 | N#CCC1(n2cc(C(N)=O)c(Nc3ccc(S(=O)(=O)C(F)F)cc3)n2)CCC(Nc2cccc(O)c2)CC1 (stereo not drawn) [Example 40-14, Cis or trans 1-{1-(cyanomethyl)-4-[(3-hydroxyphenyl)amino]cyclohexyl}-3-({4-[(difluoromethyl)sulfonyl]phenyl}amino)-1H-pyrazole-4-carboxamide] | 7.19
11 | N#CCC1(n2cc(C(N)=O)c(Nc3ccc(S(=O)(=O)C(F)F)cc3)n2)CCC(Nc2ccccc2O)CC1 (stereo not drawn) [Example 40-32, Cis or trans 1-{1-(cyanomethyl)-4-[(2-hydroxyphenyl)amino]cyclohexyl}-3-({4-[(difluoromethyl)sulfonyl]phenyl}amino)-1H-pyrazole-4-carboxamide] | 6.75
12 | N#CCC1(n2cc(C(N)=O)c(Nc3ccnc(F)c3)n2)CCC(NC2CCOCC2)CC1 (stereo not drawn) [Example 40-38, Cis or trans 1-[1-(cyanomethyl)-4-(tetrahydro-2H-pyran-4-ylamino)cyclohexyl]-3-[(2-fluoropyridin-4-yl)amino]-1H-pyrazole-4-carboxamide] | 6.99
13 | N#CCC1(n2cc(C(N)=O)c(Nc3ccc(F)cc3)n2)CCC(NC2CCOCC2)CC1 (stereo not drawn) [Example 40-65, Cis or trans 1-[1-(cyanomethyl)-4-(tetrahydro-2H-pyran-4-ylamino)cyclohexyl]-3-[(4-fluorophenyl)amino]-1H-pyrazole-4-carboxamide] | 6.89
14 | N#CC[C@]1(n2cc(C(N)=O)c(Nc3ccccc3)n2)CC[C@@H](C(=O)NCC(F)(F)F)CC1 [Example 45-1, cis or trans 1-{1-(cyanomethyl)-4-[(2,2,2-trifluoroethyl)carbamoyl]cyclohexyl}-3-(phenylamino)-1H-pyrazole-4-carboxamide] | 6.52

Same assay, conditions: HTRF biochemical assay, GST-tagged catalytic domain; top concentration tested […]

Row | pIC50 | SMILES
15 | 7.68 | C[C@H]1CN(C(=O)OC(C)(C)C)CC[C@]1(CC#N)n1cc(C(N)=O)c(Nc2ccccc2)n1 (racemic) [Example 2-9, tert-Butyl (3S,4R and 3R,4S)-4-[4-carbamoyl-3-(phenylamino)-1H-pyrazol-1-yl]-4-(cyanomethyl)-3-methylpiperidine-1-carboxylate]
16 | 7.68 | C[C@H]1C[C@](CC#N)(n2cc(C(N)=O)c(Nc3ccccc3)n2)CCN1C(=O)OC(C)(C)C (racemic) [Example 2-10]
17 | 6.21 | C[C@@H]1C[C@](CC#N)(n2cc(C(N)=O)c(Nc3ccccc3)n2)CCN1C(=O)OC(C)(C)C (racemic) [Example 2-11, tert-butyl (2R,4R and 2S,4S)-4-[4-carbamoyl-3-(phenylamino)-1H-pyrazol-1-yl]-4-(cyanomethyl)-2-methylpiperidine-1-carboxylate]
18 | 7.60 | CC(C)(C)OC(=O)N1CC[C@](CC#N)(n2cc(C(N)=O)c(Nc3ccc(F)cc3)n2)[C@@H](F)C1 (racemic) [Example 6-3, tert-butyl (3S,4R and 3R,4S)-4-{4-carbamoyl-3-[(4-fluorophenyl)amino]-1H-pyrazol-1-yl}-4-(cyanomethyl)-3-fluoropiperidine-1-carboxylate]
19 | 7.62 | C[C@H]1CN(C(=O)OC(C)(C)C)CC[C@]1(CC#N)n1cc(C(N)=O)c(Nc2ccccc2)n1 (single isomer, unassigned) [Example 48-1, tert-Butyl (3S,4R or 3R,4S)-4-[4-carbamoyl-3-(phenylamino)-1H-pyrazol-1-yl]-4-(cyanomethyl)-3-methylpiperidine-1-carboxylate]
20 | 6.31 | C[C@H]1CN(C(=O)OC(C)(C)C)CC[C@]1(CC#N)n1cc(C(N)=O)c(Nc2ccccc2)n1 (single isomer, unassigned) [Example 48-2, tert-Butyl (3S,4R or 3R,4S)-4-[4-carbamoyl-3-(phenylamino)-1H-pyrazol-1-yl]-4-(cyanomethyl)-3-methylpiperidine-1-carboxylate]
21 | 6.88 | N#CCC1(n2cc(C(N)=O)c(Nc3ccccc3)n2)CCOCC1 [Example 6-5, 1-[4-(cyanomethyl)tetrahydro-2H-pyran-4-yl]-3-(phenylamino)-1H-pyrazole-4-carboxamide]
22 | 7.43 | N#CCC1(n2cc(C(N)=O)c(Nc3ccc(F)cc3)n2)CCN(C(=O)OC2CCOC2)CC1 (stereo not shown) [Example 30-46, tetrahydrofuran-3-yl 4-{4-carbamoyl-3-[(4-fluorophenyl)amino]-1H-pyrazol-1-yl}-4-(cyanomethyl)piperidine-1-carboxylate]

Second part, the molecule before the results:

Row | SMILES | pIC50
23 | N#CCC1(n2cc(C(N)=O)c(Nc3ccc(F)cc3)n2)CCN(C(=O)OC2CCOC2)CC1 (single isomer, unassigned) [Example 50-1, (3S or 3R)-tetrahydrofuran-3-yl 4-{4-carbamoyl-3-[(4-fluorophenyl)amino]-1H-pyrazol-1-yl}-4-(cyanomethyl)piperidine-1-carboxylate] | 7.33
24 | N#CCC1(n2cc(C(N)=O)c(Nc3ccc(F)cc3)n2)CCN(C(=O)OC2CCOC2)CC1 (single isomer, unassigned) [Example 50-2, (3S or 3R)-tetrahydrofuran-3-yl4-{4-carbamoyl-3-[(4-fluorophenyl)amino]-1H-pyrazol-1-yl}-4-(cyanomethyl)piperidine-1-carboxylate] | 7.21
25 | N#CCC1(n2cc(C(N)=O)c(Nc3ccc(F)cc3)n2)CCC(=O)CC1 [Example 40-1A, 1-(1-(Cyanomethyl)-4-oxocyclohexyl)-3-((4-fluorophenyl)amino)-1H-pyrazole-4-carboxamide] | 7.41
